The source of these data is patent US8529542B2, “Method and system for sustained-release of sclerosing agent” (UTI Limited Partnership, priority 2007, dated 2013).

Data set [1] concerns rabbit model of pleurodesis. Nature of the data set: Direct daily dosing at low levels, rabbit model of pleurodesis. Particulars: for average pleurodesis score: score out of 8. The data set is classed as in vivo. How it is done: These experiments were carried out in order to determine if low doses of sclerosing agents could result in successful pleurodesis when administered in a repeated fashion. Using daily doses of silver nitrate or doxycycline in decreasing doses starting at the lower limit of what has previously been reported to be effective, further decreases in dosing were administered utilizing single day, 5 day or 14 day regimens. Theoretically utilizing lower doses on a repeated basis may reduce the frequency and/or severity of side effects.
All experiments were carried out in a rabbit model of pleurodesis which has been extensively utilized in the field of pleurodesis in many centers around the world. As explained in further detail below, standard pleurodesis is score graded one to 8 and is used for assessment of the efficacy of pleurodesis, the number one representing a normal pleural space while 8 represents complete pleural symphysis. A score of 5 or higher is usually considered consistent with a successful pleurodesis.
A total of 18 animals were treated with doxycycline at doses of 1 mg/kg, 5 mg/kg, or 10 mg/kg. Animals (n=2) in the 10 mg/kg group received only the single day injection, animals (n=2/group) in the 5 mg/kg range received either 1 day, 5 days or 14 days injection, and animals in the lowest dose range of 1 mg/kg (n=2/group) received repeated injections over 5 days or 14 days. The results were compared with the placebo groups (n=2/group) which were given saline injections over either 1, 5 or 14 days. All doses were administered after a daily drainage. At the end of the treatment period, the animals were euthanized and pleurodesis was scored according to the standard scoring system shown in FIG. 5.
A total of 20 animals were treated with silver nitrate at dosing concentrations of 0.05%, 0.085%, 0.425% and 0.85%. Note that reported effective single dose injections of silver nitrate in this model range from 0.3% to 0.5%. A concentration of 0.25% was reported to be ineffective in one publication, but overall data is limited. The groups were assigned a treatment period of either a 1 day, 5 days or 14 days of repeated injections. A minimum of 2 animals were used for each of the 10 groups, and a further 2 animals were tested at the lowest dose range (0.05%). The results were compared with the placebo groups which were given saline injections over either 1, 5 or 14 days (n=2/group). All doses were administered after a daily drainage. At the end of the treatment period, the animals were euthanized and pleurodesis was scored according to the standard scoring table (shown in FIG. 5). Degree of pleural inflammation and fibrosis was also evaluated.

Another data set has as its system patients. Particulars: cited from earlier work; for pain after intrapleural administration: literature reports.
The next data set concerns animal model. Particulars: cited from earlier work.
Data set [2] concerns rabbit model of pleurodesis. Particulars: concentration of 0.25%; cited from earlier work.

In the case of `C[C@H]1c2cccc(O)c2C(=O)C2=C(O)[C@]3(O)C(=O)C(C(N)=O)=C(O)[C@@H](N(C)C)[C@@H]3[C@@H](O)[C@@H]21` [doxycycline], in data set [1] (5 mg/kg over 14 days, score 1-8), the pleurodesis score came to 5. For the same compound, the mean pleurodesis score in data set [1] (10 mg/kg single dose, score 1-8) worked out at 4.5. For the same compound, the “pain after intrapleural administration” value in the data set on patients is “significant”.
In the case of `CN(C)c1ccc(O)c2c1C[C@H]1C[C@H]3[C@H](N(C)C)C(O)=C(C(N)=O)C(=O)[C@@]3(O)C(O)=C1C2=O` [minocycline], the mortality entry in the data set on animal model (higher doses, intrapleural (Light et al., 1994)) is on record as “excess mortality”.
Consider `O=[N+]([O-])[O-].[Ag+]` [silver nitrate], for which the “systemic response (white blood cell count elevation, neutrophilia, serum interleukin-8 and VEGF levels)” value in the data set on animal model (concentration of 0.1% vs 0.5% dose (Marchi et al., 2005)) is reported as “less systemic response”. The average pleurodesis score in data set [1] (0.05% 14 days of repeated injections) stood at 6.5; in data set [1] (0.085% repeated daily over 5 days) it was 7.5; in data set [1] (0.425% single day injection), 8; in data set [1] (0.85% single day injection) it was 8. Moreover, the pleurodesis scores entry is “greater than or equal to 5” in data set [1] (0.050% administered for 14 days) and “successful pleurodesis scores” in data set [1] (0.085% administered for 5 days). The pleurodesis outcome in data set [1] (0.085% single dose) is recorded as “ineffective in achieving pleurodesis”. The “pleurodesis outcome (one publication)” value in data set [2] is “ineffective”. Also, the “tolerability in human trial” value with patients (0.5% concentration (Paschoalini et al., 2005)) is given as “well tolerated”. Also, the clinical side effects result with patients (concentrations of up 10% (Wied et al.)) was “severe pain and side effects”. Moreover, in the data set on patients, the “pain after intrapleural administration” value is reported as “significant”.
`CN(C)[C@@H]1C(O)=C(C(N)=O)C(=O)[C@@]2(O)C(O)=C3C(=O)c4c(O)cccc4[C@@](C)(O)[C@H]3C[C@@H]12` [tetracycline]: the “pain after intrapleural administration” value in the data set with patients is “Intense pain”.
